Experimental data from publication PMC13065040 (PLOS One, 2026).
Entries after “also recorded” stand apart in the source; their conditions may differ.

Assays:
MMP-2 [1] = details: cited from earlier work
Source text: Ctx (Fig 2) is a 36-residue polypeptide from the scorpion Leiurus quinquestriatus. Ctx contains 8 cysteinyl residues, forming 4 disulfide bridges which help to stabilize its three-dimensional structure. […] However, conflicting data on the effects of Ctx on the glioma-specific chloride channel makes it difficu ... || Given the absence of change in melting temperature, the present result cannot confirm the notion that Ctx binds to the three fibronectin regions in the collagen binding domain [33].

GBM cells = details: read-out: IC50, inhibition of migration of GBM cells; cited from earlier work
Source text: Ctx (Fig 2) is a 36-residue polypeptide from the scorpion Leiurus quinquestriatus. Ctx contains 8 cysteinyl residues, forming 4 disulfide bridges which help to stabilize its three-dimensional structure. […] However, conflicting data on the effects of Ctx on the glioma-specific chloride channel makes it difficu ...

MMP-2 [2] = molecular target: T1, MMP-2 (Homo sapiens, UniProt P08253); experiment: Differential scanning fluorimetry (DSF); type: binding; parameters: Dtm (ΔTm): unit not given here; details: for Dtm (ΔTm), average / Tm of MMP-2 with peptide, average: average of replicates; for Dtm (ΔTm) / Tm of MMP-2 with peptide: CTX experiment
T1 construct: ProSpec Bio; Antibodies-Online; Elabscience; Abcam ENZ-769; ABIN7400042; PKSH033450
T1 sequence (P08253 110-660): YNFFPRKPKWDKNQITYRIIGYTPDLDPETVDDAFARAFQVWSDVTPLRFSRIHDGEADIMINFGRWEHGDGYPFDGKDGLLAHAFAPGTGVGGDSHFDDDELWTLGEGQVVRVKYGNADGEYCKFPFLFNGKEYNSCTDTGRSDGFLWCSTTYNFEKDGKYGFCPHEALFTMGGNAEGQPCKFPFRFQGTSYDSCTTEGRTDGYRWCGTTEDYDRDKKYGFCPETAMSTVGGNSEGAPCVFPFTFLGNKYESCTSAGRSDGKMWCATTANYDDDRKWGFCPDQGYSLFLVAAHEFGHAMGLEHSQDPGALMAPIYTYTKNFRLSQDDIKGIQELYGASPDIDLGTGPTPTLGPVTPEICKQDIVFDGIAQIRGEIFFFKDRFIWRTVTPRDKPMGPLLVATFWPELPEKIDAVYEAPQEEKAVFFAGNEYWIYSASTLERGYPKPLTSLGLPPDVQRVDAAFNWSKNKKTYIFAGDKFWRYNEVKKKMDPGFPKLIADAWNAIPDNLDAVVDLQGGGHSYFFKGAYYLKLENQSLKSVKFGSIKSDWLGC
Experimental: The melting temperatures (Tm) of recombinant MMP-2 and its complexes with peptides were ascertained using BioRad CFX384 Touch real-time PCR (Hercules, CA, USA). The experiments were performed as previously described. The unfolding of the protein was detected using the fluorescent SYPRO-orange dye (Invitrogen, Carlsbad, CA, USA). MMP-2 and prospective ligand peptides were dissolved in 7.1 pH phosphate buffered saline (154 mM NaCl, 5.6 mM Na2PO4, 1.1 mM KH2PO4), and the reaction mixture was made to a final concentration of 1 µM of protein, either 30 µM ([…]) of peptide, and 1000x dilution of the SYPRO-Orange dye stock from the manufacturer. Excitation and emission filters of the dye were set at 450 − 490 nm and 560 − 580 nm, respectively. The temperature for the reaction was held at 25 °C for 5 min, and then a gradient of 25 °C to 95 °C was applied at a rate of 0.3 °C/min, and the fluorescence was recorded. To determine Tm of the protein, the first derivatives of melting curves were plotted using GraphPad Prism software, version 10.0.3.

MMP-2 [3] = molecular target: T2, MMP-2 (Homo sapiens, UniProt P08253); experiment: MMP-2 inhibition assay (Enzo kit, OmniMMP RED fluorogenic substrate); type: biochemical
T2 construct: purchased Enzo Life Sciences (MMP-2 drug discovery kit)
Experimental: The MMP-2 inhibition assay was performed using the Enzo Life Sciences MMP-2 drug discovery kit. and the quenched fluorogenic substrate OmniMMP RED. Reference substrate was diluted to a final concentration of 5 μM, while the MMP-2 enzyme was diluted to 58 mU/µL, and the N-Isobutyl-N-(4-methoxyphenylsulfonyl)glycyl hydroxamic acid (NNGH) inhibitor was diluted to a concentration of 1/200 in assay buffer. […] The assay was performed using a black 96-well microplate. Fluorescence was measured at excitation/emission wavelengths of 545/576 nm, with a cutoff at 570 nm using Gen5 microplate reader (BioTeK, Shoreline, WA). Baseline fluorescence was recorded before adding NNGH inhibitor which was used as a positive control for MMP-2 inhibition. Reaction mixtures in the plate were incubated at 37 °C for 10 min, and fluorescence was measured at 10 min intervals for the first 30 min, then at 30 min intervals until 2 h had elapsed. […] Statistical analysis was performed using ANOVA with GraphPad Prism software, version 10.0.3.

Chlorotoxin [Ctx]
effect on the enzymatic activity of MMP-2 (MMP-2 [1]): no statistically significant effect
inhibition of MMP-2 enzymatic activity (MMP-2 [1]): inhibits MMP-2 enzymatic activity
IC50 (GBM cells): 184 nM
Dtm (ΔTm), average (MMP-2 [2]; peptide 30 (µM per method)): 2.368e-15
Tm of MMP-2 with peptide, average (MMP-2 [2]; peptide 30 (µM per method)): 47.7
Dtm (ΔTm) (MMP-2 [2]; peptide 30, replicate 1): -0.2
Tm of MMP-2 with peptide (MMP-2 [2]; peptide 30, replicate 1): 47.5 °C
Dtm (ΔTm) (MMP-2 [2]; peptide 30, replicate 2): 0.1
Tm of MMP-2 with peptide (MMP-2 [2]; peptide 30, replicate 2): 47.8 °C
Dtm (ΔTm) (MMP-2 [2]; peptide 30, replicate 3): 0.1
Tm of MMP-2 with peptide (MMP-2 [2]; peptide 30, replicate 3): 47.8 °C
Dtm (ΔTm), average (MMP-2 [2]; peptide 50 (µM per method)): -0.2
Tm of MMP-2 with peptide, average (MMP-2 [2]; peptide 50 (µM per method)): 47.5
Dtm (ΔTm) (MMP-2 [2]; peptide 50, replicate 1): -0.2
Tm of MMP-2 with peptide (MMP-2 [2]; peptide 50, replicate 1): 47.5 °C
Dtm (ΔTm) (MMP-2 [2]; peptide 50, replicate 2): -0.2
Tm of MMP-2 with peptide (MMP-2 [2]; peptide 50, replicate 2): 47.5 °C
Dtm (ΔTm) (MMP-2 [2]; peptide 50, replicate 3): -0.2
Tm of MMP-2 with peptide (MMP-2 [2]; peptide 50, replicate 3): 47.5 °C
MMP-2 enzymatic activity, percent of control (MMP-2 [3]; Ctx 1 µM, replicate 1): 118.933
MMP-2 enzymatic activity, percent of control (MMP-2 [3]; Ctx 1 µM, replicate 2): 112.076
MMP-2 enzymatic activity, percent of control (MMP-2 [3]; Ctx 1 µM, replicate 3): 102.494
MMP-2 enzymatic activity, percent of control (MMP-2 [3]; Ctx 1 µM, replicate 4): 91.6233
MMP-2 enzymatic activity, percent of control (MMP-2 [3]; Ctx 1 µM, replicate 5): 88.1016
MMP-2 enzymatic activity, percent of control (MMP-2 [3]; Ctx 1 µM, replicate 6): 107.77
MMP-2 enzymatic activity, percent of control (MMP-2 [3]; Ctx 1 µM, replicate 7): 112.009
MMP-2 enzymatic activity, percent of control (MMP-2 [3]; Ctx 1 µM, replicate 8): 115.93
MMP-2 enzymatic activity, percent of control (MMP-2 [3]; Ctx 5 µM, replicate 1): 109.471
MMP-2 enzymatic activity, percent of control (MMP-2 [3]; Ctx 5 µM, replicate 2): 117.657
MMP-2 enzymatic activity, percent of control (MMP-2 [3]; Ctx 5 µM, replicate 3): 107.159
MMP-2 enzymatic activity, percent of control (MMP-2 [3]; Ctx 5 µM, replicate 4): 113.75
MMP-2 enzymatic activity, percent of control (MMP-2 [3]; Ctx 5 µM, replicate 5): 100.089
MMP-2 enzymatic activity, percent of control (MMP-2 [3]; Ctx 5 µM, replicate 6): 108.86
MMP-2 enzymatic activity, percent of control (MMP-2 [3]; Ctx 5 µM, replicate 7): 121.511
MMP-2 enzymatic activity, percent of control (MMP-2 [3]; Ctx 5 µM, replicate 8): 108.966
MMP-2 enzymatic activity, percent of control (MMP-2 [3]; Ctx 10 µM, replicate 1): 86.2677
MMP-2 enzymatic activity, percent of control (MMP-2 [3]; Ctx 10 µM, replicate 2): 99.1052
MMP-2 enzymatic activity, percent of control (MMP-2 [3]; Ctx 10 µM, replicate 3): 97.4706
MMP-2 enzymatic activity, percent of control (MMP-2 [3]; Ctx 10 µM, replicate 4): 94.5071
MMP-2 enzymatic activity, percent of control (MMP-2 [3]; Ctx 10 µM, replicate 5): 60.0877
MMP-2 enzymatic activity, percent of control (MMP-2 [3]; Ctx 10 µM, replicate 6): 92.3409
MMP-2 enzymatic activity, percent of control (MMP-2 [3]; Ctx 10 µM, replicate 7): 113.684
MMP-2 enzymatic activity, percent of control (MMP-2 [3]; Ctx 10 µM, replicate 8): 106.8
MMP-2 enzymatic activity, percent of control (MMP-2 [3]; Ctx 15 µM, replicate 1): 86.879
MMP-2 enzymatic activity, percent of control (MMP-2 [3]; Ctx 15 µM, replicate 2): 110.627
MMP-2 enzymatic activity, percent of control (MMP-2 [3]; Ctx 15 µM, replicate 3): 103.344
MMP-2 enzymatic activity, percent of control (MMP-2 [3]; Ctx 15 µM, replicate 4): 104.062
MMP-2 enzymatic activity, percent of control (MMP-2 [3]; Ctx 15 µM, replicate 5): 43.5824
MMP-2 enzymatic activity, percent of control (MMP-2 [3]; Ctx 15 µM, replicate 6): 117.856
MMP-2 enzymatic activity, percent of control (MMP-2 [3]; Ctx 15 µM, replicate 7): 126.92
MMP-2 enzymatic activity, percent of control (MMP-2 [3]; Ctx 15 µM, replicate 8): 120.528
MMP-2 enzymatic activity, percent of control (MMP-2 [3]; Ctx 20 µM, replicate 1): 134.561
MMP-2 enzymatic activity, percent of control (MMP-2 [3]; Ctx 20 µM, replicate 2): 108.926
MMP-2 enzymatic activity, percent of control (MMP-2 [3]; Ctx 20 µM, replicate 3): 139.252
MMP-2 enzymatic activity, percent of control (MMP-2 [3]; Ctx 20 µM, replicate 4): 98.6135
MMP-2 enzymatic activity, percent of control (MMP-2 [3]; Ctx 20 µM, replicate 5): 53.8949
MMP-2 enzymatic activity, percent of control (MMP-2 [3]; Ctx 20 µM, replicate 6): 135.226
MMP-2 enzymatic activity, percent of control (MMP-2 [3]; Ctx 20 µM, replicate 7): 133.352
MMP-2 enzymatic activity, percent of control (MMP-2 [3]; Ctx 20 µM, replicate 8): 121.591
inhibition of MMP-2 enzymatic activity (Fig 10A) (MMP-2 [3]; Ctx at 1, 5, 10, 15 and 20 µM, compared to control inhibitor): did not inhibit; also recorded: not statistically significant
inhibition of MMP-2 enzymatic activity (Fig 10B) (MMP-2 [3]; peptides at 1 µM, 50 µM and 100 µM, one-way ANOVA vs control): not statistically significant
